Assay results: patent publication US20250049970A1, “DLL3 TARGETING PEPTIDES AND CONSTRUCTS THEREOF” (MARIANA ONCOLOGY INC., priority 2023, published 2025)
pKd: −log10 of the molar value. *1 amine or outer side, *2 acyl side, *3 side chain or, on linkers, in order; H or OH if unused. Where a SMILES comes first, the peptide text is derived from it. Bridges are numbered along the chain shown (N, C = ends). [ ]: non-standard residue; d: D form. The star is where a group is joined. ξ: configuration not given here. X9 = CSCC[C@H](NC(=O)c1ccc(CNC(=O)CN2CCN(CC(=O)O)CCN(CC(=O)O)CCN(CC(=O)O)CC2)cc1)C(=O)N[C@H](C(=O)N[C@@H](CCCCN*)C(=O)O)C(C)C; X7 = O=C(O)CN1CCN(CC(=O)O)CCN(CC(=O)N[C@H]2CC[C@H](CC(=O)*)CC2)CCN(CC(=O)O)CC1; X10 = O=C(O)CN1CCN(CC(=O)O)CCN(CC(=O)NC2CCC(CC(=O)*)CC2)CCN(CC(=O)O)CC1; Ala(1-CH2CO2H-4-piperidyl) = N[C@@H](CC1CCN(CC(=O)O)CC1)C(=O)O; Ala(piperidin-4-yl) = O=C([C@H](CC1CCN([*:3])CC1)N[*:1])[*:2]; DOTA = O=C(O)CN1CCN(CC(=O)O)CCN(CC(=O)*)CCN(CC(=O)O)CC1; Trp(7-OMe) = COc1cccc2c(C[C@H](N)C(=O)O)c[nH]c12; Trp(7-Me) = Cc1cccc2c(C[C@H](N)C(=O)O)c[nH]c12; 2Nal = N[C@@H](Cc1ccc2ccccc2c1)C(=O)O; NMetBuAla = CN[C@@H](CC(C)(C)C)C(=O)O; tBuAla = CC(C)(C)C[C@H](N)C(=O)O; Chg = N[C@H](C(=O)O)C1CCCCC1; NMeNle = CCCC[C@H](NC)C(=O)O; αMeP = C[C@@]1(C(=O)O)CCCN1; Nle = CCCC[C@H](N)C(=O)O; Nva = CCC[C@H](N)C(=O)O; ξN = NC(=O)CC(N)C(=O)O; CH2 = C([*:1])[*:2]; ξP = O=C(O)C1CCCN1

Target: T1, DLL3 (Homo sapiens, UniProt Q9NYJ7)
T1 sequence (Q9NYJ7 27-618): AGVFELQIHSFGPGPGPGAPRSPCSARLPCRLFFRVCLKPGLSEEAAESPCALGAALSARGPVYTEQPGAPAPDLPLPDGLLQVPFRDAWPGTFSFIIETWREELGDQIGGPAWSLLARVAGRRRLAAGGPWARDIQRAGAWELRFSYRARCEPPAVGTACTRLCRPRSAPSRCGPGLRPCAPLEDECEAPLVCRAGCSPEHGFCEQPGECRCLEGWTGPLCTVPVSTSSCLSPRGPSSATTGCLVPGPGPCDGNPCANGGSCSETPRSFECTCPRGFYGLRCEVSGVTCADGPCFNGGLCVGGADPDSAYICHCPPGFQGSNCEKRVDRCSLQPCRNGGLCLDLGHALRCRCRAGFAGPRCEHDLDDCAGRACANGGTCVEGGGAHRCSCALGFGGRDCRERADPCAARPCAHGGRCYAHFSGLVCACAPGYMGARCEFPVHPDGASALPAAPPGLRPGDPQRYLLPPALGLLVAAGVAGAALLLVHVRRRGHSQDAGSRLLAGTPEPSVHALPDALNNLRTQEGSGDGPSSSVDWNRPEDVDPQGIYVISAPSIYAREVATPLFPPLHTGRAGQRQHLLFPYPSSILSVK
Experiment: SPR KD, biotinylated human DLL3 on streptavidin chip (Table 8)
Parameters: biotin (biotinylated)
Conditions: biotinylated human DLL3 on streptavidin sensor chip, 25° C., 1:1 binding model; read-out: SPR KD
Description: Biotinylated target ligand human DLL3 was immobilized on a streptavidin sensor chip. A reference surface was set up for nonspecific binding and refractive index changes. […] Sensorgram curves were fitted with 1:1 binding model, and affinity and kinetic parameters were obtained using Biacore Insight evaluation 4.0. software.

CSCC[C@H](NC(=O)c1ccc(CNC(=O)CN2CCN(CC(=O)O)CCN(CC(=O)O)CCN(CC(=O)O)CC2)cc1)C(=O)N[C@H](C(=O)N[C@@H](CCCCNC(=O)CC[C@@H]1NC(=O)[C@H](Cc2ccc3ccccc3c2)NC(=O)[C@H](CC(N)=O)NC(=O)[C@H](CC2CCNCC2)NC(=O)[C@@H](NC(=O)[C@@H](NC(=O)[C@@H](NC(=O)[C@H](Cc2c[nH]c3ccccc23)NC(C)=O)[C@@H](C)O)C2CCCCC2)CSCSC[C@@H](C(=O)N[C@@H](Cc2c[nH]c3ccccc23)C(=O)N2CCC[C@H]2C(N)=O)NC(=O)[C@H](CC(=O)O)NC1=O)C(=O)O)C(C)C [compound 425] (Ac-WT[Chg]C[Ala(piperidin-4-yl)]N[2Nal]E(X9)DCWP-NH2; linker 4-10 via CH2)
pKd: > 9.00

CC(=O)N[C@@H](Cc1c[nH]c2c(C)cccc12)C(=O)N[C@H](C(=O)N[C@H](C(=O)N[C@H]1CSCSC[C@@H](C(=O)N[C@@H](Cc2c[nH]c3ccccc23)C(=O)N2CCC[C@H]2C(N)=O)NC(=O)[C@H](CC(=O)O)NC(=O)[C@H](CCCCNC(=O)CN2CCN(CC(=O)O)CCN(CC(=O)O)CCN(CC(=O)O)CC2)NC(=O)[C@H](Cc2ccc3ccccc3c2)NC(=O)[C@H](CC(N)=O)NC(=O)[C@H](CC2CCNCC2)NC1=O)C1CCCCC1)[C@@H](C)O [compound 428, Ac-(7Me-Trp)-T-(Chg)-C(1)-[3-(4-piperidinyl)-Ala]-N-(2Nal)-Lys(DOTA)-D-C(1)-W-P-NH2] (Ac-[Trp(7-Me)]T[Chg]C[Ala(piperidin-4-yl)]N[2Nal]K(DOTA)DCWP-NH2; linker 4-10 via CH2)
pKd: > 9.00

COc1cccc2c(C[C@H](NC(C)=O)C(=O)N[C@H](C(=O)N[C@H](C(=O)N[C@H]3CSCSC[C@@H](C(=O)N[C@@H](Cc4c[nH]c5ccccc45)C(=O)N4CCCC4C(N)=O)NC(=O)[C@H](CC(=O)O)NC(=O)[C@H](CCCCNC(=O)CN4CCN(CC(=O)O)CCN(CC(=O)O)CCN(CC(=O)O)CC4)NC(=O)[C@H](Cc4ccc5ccccc5c4)NC(=O)[C@H](CC(N)=O)NC(=O)[C@H](CC4CCNCC4)NC3=O)C3CCCCC3)[C@@H](C)O)c[nH]c12 (stereo partly drawn) [compound 430, Ac-(7MeO-Trp)-T-(Chg)-C(1)-[3-(4-piperidinyl)-Ala]-N-(2Nal)-Lys(DOTA)-D-C(1)-W-P-CONH2] (Ac-[Trp(7-OMe)]T[Chg]C[Ala(piperidin-4-yl)]N[2Nal]K(DOTA)DCW[ξP]-NH2; linker 4-10 via CH2)
pKd: > 9.00

CCCC[C@@H](C(=O)N[C@H]1CSCSC[C@@H](C(=O)N[C@@H](Cc2c[nH]c3ccccc23)C(=O)N2CCC[C@H]2C(N)=O)NC(=O)[C@H](CC(=O)O)NC(=O)[C@H](CCCCNC(=O)CN2CCN(CC(=O)O)CCN(CC(=O)O)CCN(CC(=O)O)CC2)NC(=O)[C@H](Cc2ccc3ccccc3c2)NC(=O)[C@H](CC(N)=O)NC(=O)[C@H](CC2CCNCC2)NC1=O)N(C)C(=O)[C@@H](NC(=O)[C@H](Cc1c[nH]c2c(C)cccc12)NC(C)=O)[C@@H](C)O [compound 431, Ac-(7Me-Trp)-T-(NMe-Nle)-C(1)-[3-(4-piperidinyl)-Ala]-N-(2Nal)-Lys(DOTA)-D-C(1)-W-P-CONH2] (Ac-[Trp(7-Me)]T[NMeNle]C[Ala(piperidin-4-yl)]N[2Nal]K(DOTA)DCWP-NH2; linker 4-10 via CH2)
pKd: > 9.00

CC(=O)N[C@@H](Cc1c[nH]c2ccccc12)C(=O)N[C@H](C(=O)N[C@H](C(=O)N[C@H]1CSCSC[C@@H](C(=O)N[C@@H](Cc2c[nH]c3ccccc23)C(=O)N2CCC[C@H]2C(N)=O)NC(=O)[C@H](CC(=O)O)NC(=O)[C@H](CCCCNC(=O)CC2CCC(NC(=O)CN3CCN(CC(=O)O)CCN(CC(=O)O)CCN(CC(=O)O)CC3)CC2)NC(=O)[C@H](Cc2ccc3ccccc3c2)NC(=O)C(CC(N)=O)NC(=O)[C@H](CC2CCNCC2)NC1=O)C1CCCCC1)[C@@H](C)O (stereo partly drawn) [compound 432, Ac-W-T-(Chg)-C(1)-[3-(4-piperidinyl)-Ala]-N-(2Nal)-Lys(Chx-DOTA)-D-C(1)-W-P-CONH2] (Ac-WT[Chg]C[Ala(piperidin-4-yl)][ξN][2Nal]K(X10)DCWP-NH2; linker 4-10 via CH2)
pKd: > 9.00

CC(=O)N[C@@H](Cc1c[nH]c2ccccc12)C(=O)N[C@H](C(=O)N[C@@H](CC(C)(C)C)C(=O)N[C@H]1CSCSC[C@@H](C(=O)N[C@@H](Cc2c[nH]c3ccccc23)C(=O)N2CCC[C@H]2C(N)=O)NC(=O)[C@H](CC(=O)O)NC(=O)[C@H](CCCCNC(=O)C[C@H]2CC[C@H](NC(=O)CN3CCN(CC(=O)O)CCN(CC(=O)O)CCN(CC(=O)O)CC3)CC2)NC(=O)[C@H](Cc2ccc3ccccc3c2)NC(=O)[C@H](CC(N)=O)NC(=O)[C@H](CC2CCNCC2)NC1=O)[C@@H](C)O [compound 434, Ac-W-T-(t-Bu-Ala)-C(3)-[3-(4-piperidinyl)-Ala]-N-(2Nal)-Lys(Chx-DOTA)-D-C(3)-W-P-NH2] (Ac-WT[tBuAla]C[Ala(piperidin-4-yl)]N[2Nal]K(X7)DCWP-NH2; linker 4-10 via CH2)
pKd: > 9.00

CC(=O)N[C@@H](Cc1c[nH]c2ccccc12)C(=O)N[C@H](C(=O)N[C@@H](CC(C)(C)C)C(=O)N[C@H]1CSCSC[C@@H](C(=O)N[C@@H](Cc2c[nH]c3ccccc23)C(=O)N2CCC[C@@]2(C)C(=O)O)NC(=O)[C@H](CC(=O)O)NC(=O)[C@H](CCCCNC(=O)CN2CCN(CC(=O)O)CCN(CC(=O)O)CCN(CC(=O)O)CC2)NC(=O)[C@H](Cc2ccc3ccccc3c2)NC(=O)[C@H](CC(N)=O)NC(=O)[C@H](CC2CCNCC2)NC1=O)[C@@H](C)O [compound 436, Ac-W-T-(t-Bu-Ala)-C(1)-[3-(4-piperidinyl)-Ala]-N-(2Nal)-Lys(DOTA)-D-C(1)-W-(aMe-P)-COOH] (Ac-WT[tBuAla]C[Ala(piperidin-4-yl)]N[2Nal]K(DOTA)DCW[αMeP]-OH; linker 4-10 via CH2)
pKd: > 9.00

CC(=O)NCCCC[C@@H](NC(=O)[C@@H]1CCCN1C(=O)[C@H](Cc1c[nH]c2ccccc12)NC(=O)[C@@H]1CSCSC[C@H](NC(=O)[C@H](CC(C)(C)C)NC(=O)[C@@H](NC(=O)[C@H](Cc2c[nH]c3ccccc23)NC(C)=O)[C@@H](C)O)C(=O)N[C@@H](CC2CCNCC2)C(=O)N[C@@H](CC(N)=O)C(=O)N[C@@H](Cc2ccc3ccccc3c2)C(=O)N[C@@H](CCCCNC(=O)CN2CCN(CC(=O)O)CCN(CC(=O)O)CCN(CC(=O)O)CC2)C(=O)N[C@@H](CC(=O)O)C(=O)N1)C(N)=O [compound 438, Ac-W-T-(t-Bu-Ala)-C(1)-[3-(4-piperidinyl)-Ala]-N-(2Nal)-Lys(DOTA)-D-C(1)-W-P-[D-Lys(Ac)]-CONH2] (Ac-WT[tBuAla]C[Ala(piperidin-4-yl)]N[2Nal]K(DOTA)DCWP[dK](Ac)-NH2; linker 4-10 via CH2)
pKd: > 9.00

CC(=O)NCCCC[C@@H](NC(=O)[C@@H]1CCCN1C(=O)[C@H](Cc1c[nH]c2ccccc12)NC(=O)[C@@H]1CSCSC[C@H](NC(=O)[C@H](CC(C)(C)C)NC(=O)[C@@H](NC(=O)[C@H](Cc2c[nH]c3ccccc23)NC(C)=O)[C@@H](C)O)C(=O)N[C@@H](CC2CCNCC2)C(=O)N[C@@H](CC(N)=O)C(=O)N[C@@H](Cc2ccc3ccccc3c2)C(=O)N[C@@H](CCCCNC(=O)CN2CCN(CC(=O)O)CCN(CC(=O)O)CCN(CC(=O)O)CC2)C(=O)N[C@@H](CC(=O)O)C(=O)N1)C(=O)O [compound 439, Ac-W-T-(t-Bu-Ala)-C(1)-[3-(4-piperidinyl)-Ala]-N-(2Nal)-Lys(DOTA)-D-C(1)-W-P-[D-Lys(Ac)]-COOH] (Ac-WT[tBuAla]C[Ala(piperidin-4-yl)]N[2Nal]K(DOTA)DCWP[dK](Ac)-OH; linker 4-10 via CH2)
pKd: > 9.00

CCC[C@H](NC(C)=O)C(=O)N[C@@H](Cc1c[nH]c2ccccc12)C(=O)N[C@H](C(=O)N[C@H](C(=O)N[C@H]1CSSC[C@@H](C(=O)N[C@@H](Cc2c[nH]c3ccccc23)C(=O)N2CCC[C@H]2C(N)=O)NC(=O)[C@H](CC(=O)O)NC(=O)[C@H](Cc2cnc[nH]2)NC(=O)[C@H](Cc2c[nH]c3ccccc23)NC(=O)[C@H](CC(N)=O)NC(=O)[C@H](CC(N)=O)NC1=O)[C@@H](C)CC)[C@@H](C)O [compound 440, Ac-(L-Nva)-W-T-I-C(3)-N-N-W-H-D-C(3)-W-P-CONH2] (Ac-[Nva]WTICNNWHDCWP-NH2; disulfide 5-11)
pKd: 7.00 to 8.00

CCCC[C@H](NC(C)=O)C(=O)N[C@@H](Cc1c[nH]c2ccccc12)C(=O)N[C@H](C(=O)N[C@H](C(=O)N[C@H]1CSSC[C@@H](C(=O)N[C@@H](Cc2c[nH]c3ccccc23)C(=O)N2CCC[C@H]2C(N)=O)NC(=O)[C@H](CC(=O)O)NC(=O)[C@H](Cc2cnc[nH]2)NC(=O)[C@H](Cc2c[nH]c3ccccc23)NC(=O)[C@H](CC(N)=O)NC(=O)[C@H](CC(N)=O)NC1=O)[C@@H](C)CC)[C@@H](C)O [compound 441, Ac-(L-Nle)-W-T-I-C(3)-N-N-W-H-D-C(3)-W-P-CONH2] (Ac-[Nle]WTICNNWHDCWP-NH2; disulfide 5-11)
pKd: 7.00 to 8.00

CC(=O)N[C@@H](Cc1c[nH]c2ccccc12)C(=O)N[C@H](C(=O)N(C)[C@@H](CC(C)(C)C)C(=O)N[C@H]1CSCSC[C@@H](C(=O)N[C@@H](Cc2c[nH]c3ccccc23)C(=O)N2CCC[C@H]2C(N)=O)NC(=O)[C@H](CC(=O)O)NC(=O)[C@H](CCCCNC(=O)CN2CCN(CC(=O)O)CCN(CC(=O)O)CCN(CC(=O)O)CC2)NC(=O)[C@H](Cc2ccc3ccccc3c2)NC(=O)[C@H](CC(N)=O)NC(=O)[C@H](CC2CCN(CC(=O)O)CC2)NC1=O)[C@@H](C)O [compound 447] (Ac-WT[NMetBuAla]C[Ala(1-CH2CO2H-4-piperidyl)]N[2Nal]K(DOTA)DCWP-NH2; linker 4-10 via CH2)
pKd: > 9.00
